Measurements as given in patent US20150064227A1, “Sporicidal Formulation Including Botanical Extracts/Botanical-Derived Ingredients” (priority 2011, published 2015).

What was measured:
[1] = tested on: bacterial spores; assay: Sporicidal Efficacy Test, spore species not given; type: cell-based; conditions: under the Sporicidal Efficacy Test; concentration not given
Text: (§1) To determine the kill rate of solutions of interest against bacterial spores.
(§2) Materials: • 1. Test solutions of interest • 2. Clostridium difficile ATCC 43593 • 3. Geobacillus stearothermophilus CICC 10142 • 4. Filter sterilized MilliQ water • 5. Neutralization broth (prepared according to directions below) • 6. Brain Heart Infusion (BHI) agar plates with 0.15% Sodium Taurocholate • 7. Tryptic Soy Agar (TSA) plates • 8. Taurocholic acid sodium salt hydrate (Sigma-Aldrich T-4009) • 9. Phosphate buffered saline (PBS) pH 7.2 • 10. Fetal Bovine Serum (FBS) • 11. Sterile plating beads • 12. Sterile Eppendorf vials (1.5 mL) • 13. Sterile tubes (15 mL) • 14. Pipettes and sterile pipette tips (100 μL and 1000 μL) • 15. Incubator capable of 37±3° C. • 16. Anaerobic rectangular jar (7 Liter AnaeroPack System commercially available from Mitsubishi Gas Chemical Co.) with 3 GasPak satchels (BD GasPak EZ, #260678)
(§3) Procedure: • 1. Prepare culture stock of organism of interest to 10^7 CFU/ml in PBS. • 2. Thoroughly vortex the stock culture for ten minutes at medium-high speed. • 3. Dilute a small portion of the stock culture in MilliQ filter sterilized water and add FBS soil load to the inoculum to achieve a concentration of 5% v/v FBS. • 4. Place the inoculum in a sonicating water bath for five cycles of one minute on, one minute off • 5. Add 100 μL of spore culture to sterile vial containing 900 μL of test solution and vortex. • 6. After the test exposure time, vortex the vials. • 7. Transfer 100 μL of test solution and spore mixture to sterile tubes containing 900 μL neutralization broth to neutralize. • 8. Place the neutralized samples in a sonicating water bath for five cycles of one minute on, one minute off • 9. Vortex each tube. For C. difficile, pipette 100 μL of each neutralized sample on BHI+0.15% sodium taurocholate media plates (prepared in lab according to dehydrated powder instructions). For G. stearothermophilus, pipette 100 μL of each neutralized sample onto TSA plates. Spread using sterile beads. • 10. Prepare a control sample by adding the spore culture to 900 μL of filter sterilized MQ water and repeat steps 3-6 above. Dilute control code to achieve 10^2 CFU/ml. • 11. For C. difficile, place plates in anaerobic jars or boxes (with appropriate number of catalase pouches) or in the anaerobic chamber and incubate for 48±8 hours at 37±3° C. For G. stearothermophilus, incubate plates aerobically for 48±8 hours at […]. • 12. After incubation, enumerate colonies and record results. Calculate Log10 reduction by comparing the number of colonies recovered from the test solution versus those recovered with the control.
(§4) Neutralization Broth Preparation: • 1. Mix the following ingredients: • 1 L Letheen broth • 0.3% ppm Lecithin • 3% ppm Tween 80 • 0.1% ppm Histidine • 2. Solution is sterilized by autoclave. • 3. Catalase (0.1-0.2%) is added when completely cooled and then filter sterilized.

[2] = tested on: C. diff. spores (Clostridium difficile ATCC 43593); assay: Sporicidal Efficacy Test against C. diff. spores; type: cell-based; conditions: for sporicidal activity against C. diff. (in words): concentration not given
Text: as §1, §2, §3, §4

[3] = botanical-derived ingredient 10 mg/ml in 75 % ethanol / 25 % water by volume

Row | Compound | sporicidal activity (in words) [1] | also measured
1 | O=c1c(-c2ccc(O)cc2)coc2c([C@@H]3O[C@H](CO)[C@@H](O)[C@H](O)[C@H]3O)c(O)ccc12 [puerarin] | None of these botanical extracts illustrated sporicidal activity | –
2 | CC(C)=CCOc1c2occc2cc2ccc(=O)oc12 [imperatonin] | None of these ingredients derived from botanical extracts illustrated sporicidal activity | –
3 | NCCC(=O)O [β-alanine] | None of these ingredients derived from botanical extracts illustrated sporicidal activity | –
4 | O=c1cc(-c2ccc(O)c(O)c2)oc2cc(O)cc(O)c12 [luteolin] | None of these botanical extracts illustrated sporicidal activity | –
5 | CC(C)=CCCC1(C)CC(O)c2c(O)c3c(c(CC=C(C)C)c2O1)OC12C(=CC4CC1C(C)(C)OC2(C/C=C(\C)C(=O)O)C4=O)C3=O (stereo not drawn) [Neogambogic acid] | demonstrated sporicidal activity | Log Reduction (5 min contact time) [2, 3]: 3.96
6 | O=c1c(OC2OC(CO)C(O)C(O)C2O)c(-c2ccc(O)c(O)c2)oc2cc(O)cc(O)c12 (stereo not drawn) [isoquercetrin] | None of these ingredients derived from botanical extracts illustrated sporicidal activity | –
7 | Cc1coc2c1C(=O)C(=O)c1c-2ccc2c1CCCC2(C)C [tanshinone IIA] | None of these ingredients derived from botanical extracts illustrated sporicidal activity | sporicidal activity against C. diff. (in words) [2]: no detectable effect
8 | O=c1cc(-c2ccccc2)oc2cc(O)c(O)c(O)c12 [noroxylin] | None of these botanical extracts illustrated sporicidal activity | –
9 | CC12CCC(CC1)C(C)(C)O2 [cineole] | None of these ingredients derived from botanical extracts illustrated sporicidal activity | –
10 | O=C(O)/C=C/c1ccc(O)c(O)c1 [caffeic acid] | None of these ingredients derived from botanical extracts illustrated sporicidal activity | –
11 | C[C@H]1COC2=C1C(=O)C(=O)c1c2ccc2c1CCCC2(C)C [Cryptotanshinone] | – | Log Reduction (5 min contact time) ([2]; botanical-derived ingredient 5.9 mg/ml in 75 % ethanol / 25 % water by volume): 3.43
12 | CC(C)=CCOc1c2ccoc2cc2oc(=O)ccc12 [isoimperatorin] | None of these ingredients derived from botanical extracts illustrated sporicidal activity | –
13 | bavachinin | None of these ingredients derived from botanical extracts illustrated sporicidal activity | –
14 | CC(C)=CCC[C@]1(C)C=Cc2c(O)c3c(c(CC=C(C)C)c2O1)O[C@]12C(=C[C@@H]4C[C@H]1C(C)(C)O[C@@]2(C/C=C(/C)C(=O)O)C4=O)C3=O [Gambogic acid] | demonstrated sporicidal activity | Log Reduction (5 min contact time) [2, 3]: 3.96
15 | COc1ccc(-c2oc3c(CC=C(C)C)c(O)cc(O)c3c(=O)c2O)cc1 [icaritin] | None of these ingredients derived from botanical extracts illustrated sporicidal activity | –
16 | CC(C)=CCc1cc2c(cc1O)O[C@H](c1ccc(O)cc1)CC2=O [bavachin] | None of these ingredients derived from botanical extracts illustrated sporicidal activity | –

Row | Compound | sporicidal activity (in words) [1] | also measured
17 | O=C(O)[C@@H]1CCCN1 [L-proline] | None of these ingredients derived from botanical extracts illustrated sporicidal activity | –
18 | O=c1c(O)c(-c2ccc(O)cc2)oc2cc(O)cc(O)c12 [kaempferol] | None of these botanical extracts illustrated sporicidal activity | –
19 | O=c1c(-c2ccc(O)cc2)coc2cc(O)cc(O)c12 [genistein] | None of these botanical extracts illustrated sporicidal activity | –
20 | CC[C@H](/C=C/[C@@H](C)[C@H]1CC[C@H]2[C@@H]3CC=C4C[C@@H](O)CC[C@]4(C)[C@H]3CC[C@]12C)C(C)C [stigmasterol] | None of these ingredients derived from botanical extracts illustrated sporicidal activity | –
21 | O=c1c(O)c(-c2ccc(O)c(O)c2)oc2cc(O)cc(O)c12 [quercetin] | None of these botanical extracts illustrated sporicidal activity | –
22 | C[C@H](N)C(=O)O [L-alanine] | None of these ingredients derived from botanical extracts illustrated sporicidal activity | –
23 | COC(=O)C1=CO[C@@H](O[C@@H]2O[C@H](CO)[C@@H](O)[C@H](O)[C@H]2O)[C@@H]2C(CO)=CC[C@H]12 [geniposide] | None of these ingredients derived from botanical extracts illustrated sporicidal activity | –
24 | COc1cc(/C=C/C(=O)O)ccc1O [ferulic acid] | None of these ingredients derived from botanical extracts illustrated sporicidal activity | –
25 | OC[C@H]1O[C@@H](OCCc2ccc(O)cc2)[C@H](O)[C@@H](O)[C@@H]1O [salidroside] | None of these botanical extracts illustrated sporicidal activity | –
26 | O=C(O)c1ccc(O)cc1 [p-hydroxybenzoic acid] | None of these ingredients derived from botanical extracts illustrated sporicidal activity | –
27 | CC(C)=CCc1cc(-c2coc3cc(O)ccc3c2=O)ccc1O [neobavaisoflavone] | None of these ingredients derived from botanical extracts illustrated sporicidal activity | –
28 | COc1ccc2ccc(=O)oc2c1CC=C(C)C [osthole] | None of these botanical extracts illustrated sporicidal activity | –
29 | O=C(O)c1ccc(O)c(O)c1 [protocatechuic acid] | None of these ingredients derived from botanical extracts illustrated sporicidal activity | –
30 | Cc1cccc2c3c(ccc12)C1=C(C(=O)C3=O)[C@@H](C)CO1 [dihydrotanshinone] | None of these ingredients derived from botanical extracts illustrated sporicidal activity | sporicidal activity against C. diff. (in words) [2]: no detectable effect
31 | CC1(C)CC[C@]2(C(=O)O)CC[C@]3(C)C(=CC[C@@H]4[C@@]5(C)CC[C@H](O)C(C)(C)[C@@H]5CC[C@]43C)[C@@H]2C1 [oleanolic acid] | None of these ingredients derived from botanical extracts illustrated sporicidal activity | –
32 | O=C(O)C=Cc1ccc(O)cc1 [p-hydroxy-cinnamic acid] | None of these botanical extracts illustrated sporicidal activity | –
